Consider 25 molecules from patent US9873709B2 (priority 2013, dated 2018).

Structures are written as SMILES. Structures can show the parent of a compound that is named as a salt.

For the assay, the system named is JAK1-dependent STAT6 phosphorylation downstream of IL-13 stimulation in TF-1 human erythroleukemia cells. Description: cells. Particulars: TF-1, read-out: IL-13-pSTAT6 IC50.
In general, IC50 refers to the concentration needed to halve the response being measured. On to `O=C(CCC(F)(F)F)N1CC=C(c2cccn3nc(Nc4ccc(C(=O)N5CCOC6(CCCNC6)C5)cc4)nc23)CC1` (stereo not shown) [Example 2-82, 4,4,4-trifluoro-1-[4-[2-[4-(1-oxa-4,8-diazaspiro[5.5]undecane-4-carbonyl)anilino]-[1,2,4]triazolo[1,5-a]pyridin-8-yl]-3,6-dihydro-2H-pyridin-1-yl]butan-1-one], for which the IC50 stood at 224 nM.
As for `O=C(NCC1CCC2(CCNCC2)O1)c1ccc(Nc2nc3c(C4=CCN(C(=O)CCC(F)(F)F)CC4)cccn3n2)cc1` (stereo not shown) [Example 2-83, N-(1-oxa-8-azaspiro[4.5]decan-2-ylmethyl)-4-[[8-[1-(4,4,4-trifluorobutanoyl)-3,6-dihydro-2H-pyridin-4-yl]-[1,2,4]triazolo[1,5-a]pyridin-2-yl]amino]benzamide], the IC50 stood at 197 nM.
For `O=C(NCC1CCNCC1)c1ccc(Nc2nc3c(C4=CCN(C(=O)CCC(F)(F)F)CC4)cccn3n2)cc1` [Example 2-84, N-(4-piperidylmethyl)-4-[[8-[1-(4,4,4-trifluorobutanoyl)-3,6-dihydro-2H-pyridin-4-yl]-[1,2,4]triazolo[1,5-a]pyridin-2-yl]amino]benzamide] the value was 71.4 nM.
With `CNC1CCN(C(=O)c2ccc(Nc3nc4c(C5=CCN(C(=O)CCC(F)(F)F)CC5)cccn4n3)cc2)C1` (stereo not shown) [Example 2-85, 4,4,4-trifluoro-1-[4-[2-[4-[3-(methylamino)pyrrolidine-1-carbonyl]anilino]-[1,2,4]triazolo[1,5-a]pyridin-8-yl]-3,6-dihydro-2H-pyridin-1-yl]butan-1-one], the IC50 is 62.6 nM.
In the case of `O=C(NCCC1CCNCC1)c1ccc(Nc2nc3c(C4=CCN(C(=O)CCC(F)(F)F)CC4)cccn3n2)cc1` [Example 2-86, N-[2-(4-piperidyl)ethyl]-4-[[8-[1-(4,4,4-trifluorobutanoyl)-3,6-dihydro-2H-pyridin-4-yl]-[1,2,4]triazolo[1,5-a]pyridin-2-yl]amino]benzamide], the IC50 is 216 nM.
To `CN1CC2CN(C(=O)c3ccc(Nc4nc5c(C6=CCN(C(=O)CCC(F)(F)F)CC6)cccn5n4)cc3)CC2C1` (stereo not shown) [Example 2-87, 4,4,4-trifluoro-1-[4-[2-[4-(2-methyl-1,3,3a,4,6,6a-hexahydropyrrolo[3,4-c]pyrrole-5-carbonyl)anilino]-[1,2,4]triazolo[1,5-a]pyridin-8-yl]-3,6-dihydro-2H-pyridin-1-yl]butan-1-one] belongs 8.6 nM; to `Cc1cc(N(C)C)cc(C2CCCN2C(=O)c2ccc(Nc3nc4c(C5=CCN(C(=O)CCC(F)(F)F)CC5)cccn4n3)cc2)n1` (stereo not shown) [Example 2-92, 1-[4-[2-[4-[2-[4-(dimethylamino)-6-methyl-2-pyridyl]pyrrolidine-1-carbonyl]anilino]-[1,2,4]triazolo[1,5-a]pyridin-8-yl]-3,6-dihydro-2H-pyridin-1-yl]-4,4,4-trifluoro-butan-1-one], 20.9 nM.
For `CN1CCCC2(CCCN(C(=O)c3ccc(Nc4nc5c(C6=CCN(C(=O)CCC(F)(F)F)CC6)cccn5n4)cc3)C2)C1` (stereo not shown) [Example 2-93, 4,4,4-trifluoro-1-[4-[2-[4-(8-methyl-2,8-diazaspiro[5.5]undecane-2-carbonyl)anilino]-[1,2,4]triazolo[1,5-a]pyridin-8-yl]-3,6-dihydro-2H-pyridin-1-yl]butan-1-one] the value was 4.7 nM; for `CCOC(=O)N1CC=C(c2cccn3nc(Nc4ccc(C(=O)OC5CCN(C)CC5)cc4)nc23)CC1` [Example 2-94, ethyl 4-[2-[4-[(1-methyl-4-piperidyl)oxycarbonyl]anilino]-[1,2,4]triazolo[1,5-a]pyridin-8-yl]-3,6-dihydro-2H-pyridine-1-carboxylate], 23.6 nM.
Take `O=C(CCC(F)(F)F)N1CC=C(c2cccn3nc(Nc4ccc(C(=O)N5CCN(Cc6ccccn6)CC5)cc4)nc23)CC1` [Example 2-95, 4,4,4-trifluoro-1-[4-[2-[4-[4-(2-pyridylmethyl)piperazine-1-carbonyl]anilino]-[1,2,4]triazolo[1,5-a]pyridin-8-yl]-3,6-dihydro-2H-pyridin-1-yl]butan-1-one]: the IC50 is 4.3 nM.
Turning to `CN(CCc1ccncc1)C(=O)c1ccc(Nc2nc3c(C4=CCN(C(=O)CCC(F)(F)F)CC4)cccn3n2)cc1` [Example 2-96, N-methyl-N-[2-(4-pyridyl)ethyl]-4-[[8-[1-(4,4,4-trifluorobutanoyl)-3,6-dihydro-2H-pyridin-4-yl]-[1,2,4]triazolo[1,5-a]pyridin-2-yl]amino]benzamide], the IC50 was 5.2 nM.
Consider `CN(C)C1CCN(C(=O)c2ccc(Nc3nc4c(C5=CCN(C(=O)CCC(F)(F)F)CC5)cccn4n3)cc2)CC1` [Example 2-97, 1-[4-[2-[4-[4-(dimethylamino)piperidine-1-carbonyl]anilino]-[1,2,4]triazolo[1,5-a]pyridin-8-yl]-3,6-dihydro-2H-pyridin-1-yl]-4,4,4-trifluoro-butan-1-one], for which the IC50 was determined as 13.7 nM.
For `CN1CCN(C(=O)c2ccc(Nc3nc4c(C5=CCN(C(=O)CCC(F)(F)F)CC5)cccn4n3)cc2)CC1` [Example 2-98, 4,4,4-trifluoro-1-[4-[2-[4-(4-methylpiperazine-1-carbonyl)anilino]-[1,2,4]triazolo[1,5-a]pyridin-8-yl]-3,6-dihydro-2H-pyridin-1-yl]butan-1-one] the value was 11.5 nM.
With `CN1CCN(CCCNC(=O)c2ccc(Nc3nc4c(C5=CCN(C(=O)CCC(F)(F)F)CC5)cccn4n3)cc2)CC1` [Example 2-99, N-[3-(4-methylpiperazin-1-yl)propyl]-4-[[8-[1-(4,4,4-trifluorobutanoyl)-3,6-dihydro-2H-pyridin-4-yl]-[1,2,4]triazolo[1,5-a]pyridin-2-yl]amino]benzamide], the IC50 is 29.4 nM.
Consider `O=C(NCCN1CCC(O)CC1)c1ccc(Nc2nc3c(C4=CCN(C(=O)CCC(F)(F)F)CC4)cccn3n2)cc1` [Example 2-100, N-[2-(4-hydroxy-1-piperidyl)ethyl]-4-[[8-[1-(4,4,4-trifluorobutanoyl)-3,6-dihydro-2H-pyridin-4-yl]-[1,2,4]triazolo[1,5-a]pyridin-2-yl]amino]benzamide], for which the half-inhibitory concentration (IC50) was found to be 84.7 nM.
To `CN(C)CCN1CCN(C(=O)c2ccc(Nc3nc4c(C5=CCN(C(=O)CCC(F)(F)F)CC5)cccn4n3)cc2)CC1` [Example 2-102, 1-[4-[2-[4-[4-[2-(dimethylamino)ethyl]piperazine-1-carbonyl]anilino]-[1,2,4]triazolo[1,5-a]pyridin-8-yl]-3,6-dihydro-2H-pyridin-1-yl]-4,4,4-trifluoro-butan-1-one] belongs 33.7 nM; to `O=C(CCC(F)(F)F)N1CC=C(c2cccn3nc(Nc4ccc(C(=O)N5CCCC(c6cc7cccnc7[nH]6)C5)cc4)nc23)CC1` (stereo not shown) [Example 2-103, 4,4,4-trifluoro-1-[4-[2-[4-[3-(1H-pyrrolo[2,3-b]pyridin-2-yl)piperidine-1-carbonyl]anilino]-[1,2,4]triazolo[1,5-a]pyridin-8-yl]-3,6-dihydro-2H-pyridin-1-yl]butan-1-one], 145 nM; to `CN(Cc1ccccc1-c1cccnc1)C(=O)c1ccc(Nc2nc3c(C4=CCN(C(=O)CCC(F)(F)F)CC4)cccn3n2)cc1` [Example 2-104, N-methyl-N-[[2-(3-pyridyl)phenyl]methyl]-4-[[8-[1-(4,4,4-trifluorobutanoyl)-3,6-dihydro-2H-pyridin-4-yl]-[1,2,4]triazolo[1,5-a]pyridin-2-yl]amino]benzamide], 59.7 nM.
To `CN1CCC(N(C)C(=O)c2ccc(Nc3nc4c(C5=CCN(C(=O)C6CCOCC6)CC5)cccn4n3)cc2)CC1` [Example 2-105, N-methyl-N-(1-methyl-4-piperidyl)-4-[[8-[1-(tetrahydropyran-4-carbonyl)-3,6-dihydro-2H-pyridin-4-yl]-[1,2,4]triazolo[1,5-a]pyridin-2-yl]amino]benzamide] belongs 373 nM; to `CNC(=O)N1CC=C(c2cccn3nc(Nc4ccc(C(=O)N(C)C5CCN(C)CC5)cc4)nc23)CC1` [Example 2-106, N-methyl-4-[2-[4-[methyl-(1-methyl-4-piperidyl)carbamoyl]anilino]-[1,2,4]triazolo[1,5-a]pyridin-8-yl]-3,6-dihydro-2H-pyridine-1-carboxamide; hydrochloride], 8570 nM; to `CN1CCC(N(C)C(=O)c2ccc(Nc3nc4c(C5=CCN(C(=O)C6CCOC6)CC5)cccn4n3)cc2)CC1` (stereo not shown) [Example 2-107, N-methyl-N-(1-methyl-4-piperidyl)-4-[[8-[1-(tetrahydrofuran-3-carbonyl)-3,6-dihydro-2H-pyridin-4-yl]-[1,2,4]triazolo[1,5-a]pyridin-2-yl]amino]benzamide; hydrochloride], 422 nM.
For `CN1CCC(N(C)C(=O)c2ccc(Nc3nc4c(C5=CCN(C(=O)OCC(F)(F)F)CC5)cccn4n3)cc2)CC1` [Example 2-108, 2,2,2-trifluoroethyl 4-[2-[4-[methyl-(1-methyl-4-piperidyl)carbamoyl]anilino]-[1,2,4]triazolo[1,5-a]pyridin-8-yl]-3,6-dihydro-2H-pyridine-1-carboxylate] the value was 9.8 nM; for `CCOC(=O)N1CC=C(c2cccn3nc(Nc4ccc(C(=O)NCCC5CCCN5C)cc4)nc23)CC1` (stereo not shown) [Example 2-111, ethyl 4-[2-[4-[2-(1-methylpyrrolidin-2-yl)ethylcarbamoyl]anilino]-[1,2,4]triazolo[1,5-a]pyridin-8-yl]-3,6-dihydro-2H-pyridine-1-carboxylate], 22.6 nM; for `CCOC(=O)N1CC=C(c2cccn3nc(Nc4ccc(C(=O)NCCN5CCNCC5)cc4)nc23)CC1` [Example 2-112, ethyl 4-[2-[4-(2-piperazin-1-ylethylcarbamoyl)anilino]-[1,2,4]triazolo[1,5-a]pyridin-8-yl]-3,6-dihydro-2H-pyridine-1-carboxylate], 233 nM.
`CCOC(=O)N1CC=C(c2cccn3nc(Nc4ccc(C(=O)NC5CCCNC5)cc4)nc23)CC1` (stereo not shown) [Example 2-113, ethyl 4-[2-[4-(3-piperidylcarbamoyl)anilino]-[1,2,4]triazolo[1,5-a]pyridin-8-yl]-3,6-dihydro-2H-pyridine-1-carboxylate]: the IC50 was 96.8 nM.
